Experiments:
[1] = system: TG; test: Effects of combination use of Compound A and EPA on TG levels in rats; type: in vivo, Wister rats; conditions: for TG Relative value (vs Control): oral once a day, Wister rats; for Effect on TG level, in words: Compound A 0.1 mg/kg and/or EPA 200 mg/kg, single or combination administration, Dunnett's test vs control
Procedure: (§1) Wister rats (7-week old, male, Charles River Laboratories Japan Inc.) were used for the experiments. Under ad libitum feeding, the blood samples were obtained from the cervical vein, and the rats were divided into four groups (N=8) based on the plasma TG levels, plasma TC levels and the body weights. From the next day, a solvent (a 0.5% aqueous solution of methyl cellulose: […] In the afternoon of the final administration day, the blood samples were obtained under a condition of 4 hours fasting under anesthesia with pentobarbital, and the plasma VLDL-C levels were measured according to the method by Usui et al. (Usui S et al., Clin. Chem. 46, 63-72, 2000.) by high-speed liquid chromatography. Further, the TG levels were measured by an automatic analyzer, by using a measuring reagent, Qualigent TG (Sekisui Medical Co., Ltd.). The synergistic effect was determined by using Bürgi's formula (when a relative level in a group of combined use is smaller than a value of a product of a relative level of single agent A and a relative level of single agent B, then there is a synergistic effect). Group 2: 0.1 mg/kg of Compound A Group 3: 200 mg/kg of EPA Group 4: 0.1 mg/kg of Compound A and 200 mg/kg of EPA The results are shown as the mean value±standard deviation. Comparison between the control group and the drug-administration group was performed using a Dunnett's multiple comparison test, and a risk rate of less than 5% was determined to have a significant difference.

[2] = system: VLDL-C; test: Effects of combination use of Compound A and EPA on plasma VLDL-C levels in rats; type: in vivo, Wister rats; conditions: for VLDL-C Relative value (vs Control): oral once a day, Wister rats, plasma; for Effect on VLDL-C level, in words: Compound A 0.1 mg/kg and/or EPA 200 mg/kg, single or combination administration, Dunnett's test vs control
Procedure: as §1

[3] = system: LDL-C; test: Effects of combination use of Compound A and EPA on plasma LDL-C level in Wister rats; type: in vivo; conditions: for LDL-C Relative value (vs. Control): oral once a day, Wister rats, plasma; for Effect on LDL-C level, in words: single administration of Compound A (0.1 mg/kg) or EPA, Dunnett's test vs control
Procedure: as §1, with “divided into six groups (N=8)” for “divided into four groups (N=8)”, “the plasma LDL-C levels were” for “the plasma VLDL-C levels were”, “liquid chromatography. The synergistic” for “liquid chromatography. Further, the TG levels were measured by an automatic analyzer, by using a measuring reagent, Qualigent TG (Sekisui Medical Co., Ltd.). The synergistic”, “of EPA Group 5: 3,000 mg/kg of EPA Group 6: 0.1 mg/kg of Compound A and 3,000 mg/kg of EPA The results” for “of EPA The results”, “group and drug-administration group” for “group and the drug-administration group”, “was performed by using a” for “was performed using a”

| SMILES | TG Relative value (vs Control) ([1]; Compound A 0.1 mg/kg alone) | Effect on TG level, in words [1] | VLDL-C Relative value (vs Control) ([2]; Compound A 0.1 mg/kg alone) | Effect on VLDL-C level, in words [2] | LDL-C Relative value (vs. Control) ([3]; Compound A 0.1 mg/kg alone) | Effect on LDL-C level, in words [3] | TG Relative value (vs Control) ([1]; EPA 200 mg/kg alone) | VLDL-C Relative value (vs Control) ([2]; EPA 200 mg/kg alone) | LDL-C Relative value (vs. Control) ([3]; EPA 200 mg/kg alone) | LDL-C Relative value (vs. Control) ([3]; EPA 3000 mg/kg alone) |
| --- | --- | --- | --- | --- | --- | --- | --- | --- | --- | --- |
| CC[C@@H](Oc1cccc(CN(CCCOc2ccc(OC)cc2)c2nc3ccccc3o2)c1)C(=O)O [Compound A, (R)-2-[3-[[N-(benzoxazol-2-yl)-N-3-(4-methoxyphenoxy)propyl]aminomethyl]phenoxy]butyric acid] | 0.82 | a tendency of decreasing the level of TG was observed | 0.68 | a tendency of decreasing the level of VLDL-C was observed | 1.02 | an obvious effect on LDL-C level was not observed | – | – | – | – |
| CC/C=C\C/C=C\C/C=C\C/C=C\C/C=C\CCCC(=O)O [EPA, All-cis-5,8,11,14,17-eicosapentaenoic acid] | – | any obvious effect on TG level was not observed | – | any obvious effect on VLDL-C level was not observed | – | mild decreasing action on LDL-C level was observed | 1.10 | 0.92 | 0.84 | 0.85 |
